ChEMBL document CHEMBL4152386, “Discovery of a Novel Inhaled PI3Kδ Inhibitor for the Treatment of Respiratory Diseases” (J Med Chem, 2018)
Values after ≈ are worked out from the molar mass of the structure shown. One block for each compound: values may come before it.

Assays:
[1] = biological target: T1, Phosphatidylinositol 4,5-bisphosphate 3-kinase catalytic subunit delta isoform (Mus musculus, UniProt O35904); assay: Inhibition of mouse ABD-truncated p110delta catalytic subunit (unknown origin) expressed in Sf9 cells using diC8-PIP2 substrate incubated for 1 hr by fluorescence polarization assay
T1 sequence (O35904 whole entry): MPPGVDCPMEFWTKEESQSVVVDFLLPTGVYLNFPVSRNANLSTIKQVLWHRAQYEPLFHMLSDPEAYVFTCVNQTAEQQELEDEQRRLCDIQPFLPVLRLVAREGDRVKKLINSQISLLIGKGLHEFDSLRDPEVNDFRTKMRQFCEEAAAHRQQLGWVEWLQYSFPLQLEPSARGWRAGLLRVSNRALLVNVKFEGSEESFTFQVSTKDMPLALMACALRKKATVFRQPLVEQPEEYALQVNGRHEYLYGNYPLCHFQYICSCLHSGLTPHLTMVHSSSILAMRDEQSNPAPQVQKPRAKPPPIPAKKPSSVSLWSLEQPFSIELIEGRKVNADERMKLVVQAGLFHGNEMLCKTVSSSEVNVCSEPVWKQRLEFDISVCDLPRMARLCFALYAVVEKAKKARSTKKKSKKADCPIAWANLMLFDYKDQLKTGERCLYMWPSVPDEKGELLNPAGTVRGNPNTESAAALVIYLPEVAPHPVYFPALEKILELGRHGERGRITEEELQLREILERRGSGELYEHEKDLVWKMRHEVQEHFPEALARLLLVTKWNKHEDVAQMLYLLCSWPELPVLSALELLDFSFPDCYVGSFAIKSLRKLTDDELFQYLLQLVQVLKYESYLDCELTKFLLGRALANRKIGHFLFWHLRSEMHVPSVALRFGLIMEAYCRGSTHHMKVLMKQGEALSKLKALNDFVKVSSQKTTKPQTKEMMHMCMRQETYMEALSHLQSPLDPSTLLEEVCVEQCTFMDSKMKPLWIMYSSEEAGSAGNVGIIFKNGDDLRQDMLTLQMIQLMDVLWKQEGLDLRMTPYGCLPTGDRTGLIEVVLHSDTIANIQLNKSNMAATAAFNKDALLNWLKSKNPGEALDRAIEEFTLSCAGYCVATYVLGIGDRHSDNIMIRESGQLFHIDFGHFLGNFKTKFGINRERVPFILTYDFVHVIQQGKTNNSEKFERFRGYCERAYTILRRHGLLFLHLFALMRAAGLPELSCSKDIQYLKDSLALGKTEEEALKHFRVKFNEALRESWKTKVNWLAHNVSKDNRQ

[2] = biological target: Phosphatidylinositol 4,5-bisphosphate 3-kinase catalytic subunit gamma isoform (Homo sapiens, UniProt P48736); assay: Inhibition of recombinant human N-terminal His6-tagged full length p110gamma using PIP2 as substrate preincubated for 30 mins followed by substrate addition by HTRF assay
Phosphatidylinositol 4,5-bisphosphate 3-kinase catalytic subunit gamma isoform, sequence (P48736 whole entry, canonical isoform): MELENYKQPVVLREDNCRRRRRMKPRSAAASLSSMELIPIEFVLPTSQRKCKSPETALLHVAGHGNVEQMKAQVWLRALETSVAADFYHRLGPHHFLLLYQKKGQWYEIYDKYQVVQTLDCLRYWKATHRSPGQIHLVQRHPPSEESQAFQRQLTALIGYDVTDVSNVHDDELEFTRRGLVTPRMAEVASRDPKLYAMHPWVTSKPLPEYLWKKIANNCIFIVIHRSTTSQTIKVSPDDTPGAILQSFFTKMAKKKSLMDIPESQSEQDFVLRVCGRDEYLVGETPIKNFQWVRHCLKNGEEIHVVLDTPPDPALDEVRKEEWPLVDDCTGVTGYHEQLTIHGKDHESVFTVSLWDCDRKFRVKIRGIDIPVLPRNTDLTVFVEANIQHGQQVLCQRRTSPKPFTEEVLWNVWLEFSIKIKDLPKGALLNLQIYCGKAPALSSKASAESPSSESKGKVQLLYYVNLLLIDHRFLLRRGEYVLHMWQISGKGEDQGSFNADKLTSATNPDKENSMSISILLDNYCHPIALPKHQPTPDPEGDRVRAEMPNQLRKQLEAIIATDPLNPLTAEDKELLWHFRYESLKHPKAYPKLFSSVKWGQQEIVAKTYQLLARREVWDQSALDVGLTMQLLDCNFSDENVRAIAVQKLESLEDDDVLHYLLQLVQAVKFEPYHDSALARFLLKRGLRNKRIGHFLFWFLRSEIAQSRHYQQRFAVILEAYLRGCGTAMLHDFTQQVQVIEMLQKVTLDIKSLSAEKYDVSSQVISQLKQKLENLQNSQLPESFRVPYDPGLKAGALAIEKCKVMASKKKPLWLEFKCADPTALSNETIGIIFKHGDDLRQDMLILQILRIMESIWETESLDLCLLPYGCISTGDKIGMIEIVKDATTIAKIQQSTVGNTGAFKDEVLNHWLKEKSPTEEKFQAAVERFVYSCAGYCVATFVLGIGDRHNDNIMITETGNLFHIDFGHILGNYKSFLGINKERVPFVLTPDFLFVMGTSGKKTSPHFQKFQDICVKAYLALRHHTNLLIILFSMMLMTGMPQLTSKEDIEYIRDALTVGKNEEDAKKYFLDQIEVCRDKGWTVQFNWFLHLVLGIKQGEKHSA

[3] = Drug metabolism in rat liver microsomes assessed as disappearance of parent compound at 5 uM after 30 mins in presence of NADPH by UPLC-MS/MS analysis; assay type: ADME, microsome; details: read-out: Drug metabolism
[4] = Drug metabolism in rat liver microsomes assessed as disappearance of parent compound at 5 uM preincubated for 3 mins followed UDPG addition and measured after 120 mins by UPLC-MS/MS analysis; assay type: ADME, microsome; details: read-out: Drug metabolism
[5] = Drug metabolism in human liver microsomes assessed as disappearance of parent compound at 5 uM after 30 mins in presence of NADPH by UPLC-MS/MS analysis; assay type: ADME, microsome; details: read-out: Drug metabolism
[6] = Drug metabolism in human liver microsomes assessed as disappearance of parent compound at 5 uM preincubated for 3 mins followed UDPG addition and measured after 120 mins by UPLC-MS/MS analysis; assay type: ADME, microsome; details: read-out: Drug metabolism
[7] = biological target: T2, Phosphatidylinositol 4,5-bisphosphate 3-kinase catalytic subunit delta isoform (Homo sapiens, UniProt O00329); assay: Inhibition of PI3Kdelta in human THP-1 cells assessed as reduction in M-CSF-stimulated AKT phosphorylation at Thr308 preincubated for 30 mins followed by M-CSF addition for 3 mins by ELISA; assay type: cell-based
T2 sequence (O00329 whole entry): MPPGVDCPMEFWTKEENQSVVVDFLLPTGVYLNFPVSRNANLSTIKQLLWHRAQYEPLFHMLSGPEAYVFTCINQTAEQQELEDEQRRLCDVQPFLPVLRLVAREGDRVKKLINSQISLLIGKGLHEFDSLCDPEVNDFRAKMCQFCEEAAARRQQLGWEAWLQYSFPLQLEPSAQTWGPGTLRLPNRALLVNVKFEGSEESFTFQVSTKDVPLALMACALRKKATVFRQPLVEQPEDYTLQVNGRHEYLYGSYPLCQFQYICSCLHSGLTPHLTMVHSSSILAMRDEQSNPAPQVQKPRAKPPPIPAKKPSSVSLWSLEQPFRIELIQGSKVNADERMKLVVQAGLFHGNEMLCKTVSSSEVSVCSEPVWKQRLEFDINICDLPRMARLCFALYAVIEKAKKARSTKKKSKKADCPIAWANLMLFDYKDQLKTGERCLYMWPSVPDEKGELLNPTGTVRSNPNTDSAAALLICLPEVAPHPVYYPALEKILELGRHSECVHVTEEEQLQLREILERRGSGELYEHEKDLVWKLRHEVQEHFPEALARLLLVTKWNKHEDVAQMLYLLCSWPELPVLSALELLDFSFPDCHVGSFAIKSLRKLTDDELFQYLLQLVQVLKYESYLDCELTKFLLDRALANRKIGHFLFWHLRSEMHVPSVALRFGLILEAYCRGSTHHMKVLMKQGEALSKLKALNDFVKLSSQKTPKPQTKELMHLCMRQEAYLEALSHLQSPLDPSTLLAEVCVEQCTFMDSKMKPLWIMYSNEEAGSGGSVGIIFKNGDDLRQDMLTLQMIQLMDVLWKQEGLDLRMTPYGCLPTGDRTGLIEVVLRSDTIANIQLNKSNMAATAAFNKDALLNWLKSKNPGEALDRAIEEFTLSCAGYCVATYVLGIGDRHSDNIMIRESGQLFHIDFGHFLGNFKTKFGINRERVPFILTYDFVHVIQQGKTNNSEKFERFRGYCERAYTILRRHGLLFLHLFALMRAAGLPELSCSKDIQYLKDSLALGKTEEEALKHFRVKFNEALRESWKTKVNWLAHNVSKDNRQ

[8] = Apparent permeability of the compound at 20 uM by PAMPA assay; assay type: ADME
[9] = Thermodynamic aqueous solubility of the compound at pH 7.4; assay type: physicochemical; details: buffer, read-out: Therm_solubility
[10] = AUC in Wistar rat at 1 mg/kg, iv; assay type: ADME, organism-based; details: in vivo
[11] = Cmax in Wistar rat at 1 mg/kg, iv; assay type: ADME, organism-based; parameters: dose 1 mg/kg, route intravenous; details: in vivo
[12] = Clearance in Wistar rat at 1 mg/kg, iv; assay type: ADME, organism-based; details: in vivo
[13] = Volume of distribution at steady state in Wistar rat at 1 mg/kg, iv; assay type: ADME, organism-based; details: in vivo, read-out: Vdss
[14] = Half life in Wistar rat at 1 mg/kg, iv; assay type: ADME, organism-based; details: in vivo
[15] = Oral bioavailability in Wistar rat at 1 mg/kg; assay type: ADME, organism-based; details: in vivo
[16] = Protein binding in rat plasma at 1 uM by equilibrium dialysis; assay type: ADME, cell-free; details: read-out: PPB (converted)
[17] = AUC in Wistar rat lung at 0.015 mg/kg, it administered as solution; assay type: ADME, organism-based; details: in vivo, inhaled_or_intranasal
[18] = AUC in Wistar rat lung at 0.3 mg/kg, it administered as suspension; assay type: ADME, organism-based; details: in vivo, inhaled_or_intranasal
[19] = AUC in Wistar rat plasma at 0.015 mg/kg, it administered as solution; assay type: ADME, organism-based; details: inhaled or intranasal
[20] = AUC in Wistar rat plasma at 0.3 mg/kg, it administered as suspension; assay type: ADME, organism-based; details: inhaled or intranasal
[21] = Ratio of AUC in lung to plasma of Wistar rat at 0.015 mg/kg, it administered as solution; assay type: ADME, organism-based; details: other tissue, inhaled_or_intranasal
[22] = Ratio of AUC in lung to plasma of Wistar rat at 0.3 mg/kg, it administered as suspension; assay type: ADME, organism-based; details: other tissue, inhaled_or_intranasal
[23] = Cmax in Wistar rat lung at 0.015 mg/kg, it administered as solution; assay type: ADME, organism-based; parameters: dose 0.015 mg/kg; details: inhaled or intranasal
[24] = Cmax in Wistar rat lung at 0.3 mg/kg, it administered as suspension; assay type: ADME, organism-based; parameters: dose 0.3 mg/kg; details: inhaled or intranasal
[25] = Cmax in Wistar rat plasma at 0.015 mg/kg, it administered as solution; assay type: ADME, organism-based; parameters: dose 0.015 mg/kg; details: inhaled or intranasal
[26] = Cmax in Wistar rat plasma at 0.3 mg/kg, it administered as suspension; assay type: ADME, organism-based; parameters: dose 0.3 mg/kg; details: inhaled or intranasal
[27] = Half life in Wistar rat lung at 0.015 mg/kg, it administered as solution; assay type: ADME, organism-based; details: inhaled or intranasal
[28] = Half life in Wistar rat lung at 0.3 mg/kg, it administered as suspension; assay type: ADME, organism-based; details: inhaled or intranasal
[29] = Half life in Wistar rat plasma at 0.015 mg/kg, it administered as solution; assay type: ADME, organism-based; details: inhaled or intranasal
[30] = Half life in Wistar rat plasma at 0.3 mg/kg, it administered as suspension; assay type: ADME, organism-based; details: inhaled or intranasal
Rattus norvegicus [31] = assay: (§1) Anti-inflammatory activity in Brown Norway rat model of ovalbumin-induced inflammation assessed inhibition of eosinophil infiltration in bronchoalveolar lavage at 0.3 mg/kg, it administered 1 hr before ovalbumin aerosol challenge and measured 24 hrs post challenge by hematology analysis relative to control; assay type: functional; details: inhaled or nasal
Rattus norvegicus [32] = assay: as §1, with “neutrophil” for “eosinophil”; assay type: functional; details: inhaled or nasal
Rattus norvegicus [33] = assay: as §1, with “0.1” for “0.3”; assay type: functional; details: inhaled or nasal
Rattus norvegicus [34] = assay: as §1, with “neutrophils” for “eosinophil”, “0.1” for “0.3”; assay type: functional; details: inhaled or nasal
[35] = biological target: Voltage-gated inwardly rectifying potassium channel KCNH2 (Homo sapiens, UniProt Q12809); assay: Inhibition of human ERG up to 10 uM
Voltage-gated inwardly rectifying potassium channel KCNH2, sequence (Q12809 whole entry): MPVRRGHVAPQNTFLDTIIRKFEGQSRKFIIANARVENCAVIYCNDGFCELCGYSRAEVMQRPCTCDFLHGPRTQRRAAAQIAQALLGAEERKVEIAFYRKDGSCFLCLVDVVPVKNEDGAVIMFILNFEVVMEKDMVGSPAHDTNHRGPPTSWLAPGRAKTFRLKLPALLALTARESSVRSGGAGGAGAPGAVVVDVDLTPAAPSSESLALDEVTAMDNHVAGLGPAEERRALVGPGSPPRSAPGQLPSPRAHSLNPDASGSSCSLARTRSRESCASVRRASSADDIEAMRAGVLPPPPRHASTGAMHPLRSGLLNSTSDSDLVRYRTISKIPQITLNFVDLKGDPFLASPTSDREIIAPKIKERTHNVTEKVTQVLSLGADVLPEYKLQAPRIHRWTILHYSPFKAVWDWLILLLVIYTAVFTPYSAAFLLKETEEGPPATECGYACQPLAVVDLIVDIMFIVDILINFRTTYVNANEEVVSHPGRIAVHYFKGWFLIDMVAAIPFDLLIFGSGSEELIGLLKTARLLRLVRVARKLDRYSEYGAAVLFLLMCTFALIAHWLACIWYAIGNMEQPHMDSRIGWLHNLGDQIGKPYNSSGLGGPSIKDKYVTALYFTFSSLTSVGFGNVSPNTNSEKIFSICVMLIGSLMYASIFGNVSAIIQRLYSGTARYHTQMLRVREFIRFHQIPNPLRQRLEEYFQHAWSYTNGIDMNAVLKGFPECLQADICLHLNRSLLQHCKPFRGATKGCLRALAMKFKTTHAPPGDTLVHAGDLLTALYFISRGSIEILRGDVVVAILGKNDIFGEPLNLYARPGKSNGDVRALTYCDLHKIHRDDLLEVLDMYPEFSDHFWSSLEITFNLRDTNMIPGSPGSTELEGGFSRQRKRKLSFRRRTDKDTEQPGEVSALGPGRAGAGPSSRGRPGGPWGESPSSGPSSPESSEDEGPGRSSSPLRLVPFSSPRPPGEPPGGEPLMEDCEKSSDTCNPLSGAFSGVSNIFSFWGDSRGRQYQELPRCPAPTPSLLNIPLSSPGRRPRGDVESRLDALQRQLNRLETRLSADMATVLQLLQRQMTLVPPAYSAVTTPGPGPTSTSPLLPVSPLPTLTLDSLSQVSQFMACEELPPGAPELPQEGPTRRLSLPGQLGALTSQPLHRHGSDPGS

Rattus norvegicus [36] = assay: fCmax in Brown Norway rat model of ovalbumin-induced inflammation assessed inhibition of eosinophil infiltration in bronchoalveolar lavage at 0.3 mg/kg, it administered 1 hr before ovalbumin aerosol challenge and measured 24 hrs post challenge by hematology analysis relative to control; assay type: organism-based; details: in vivo, inhaled_or_intranasal
[37] = biological target: PI3-kinase p110-delta/p85-alpha (Homo sapiens, UniProt O00329)
PI3-kinase p110-delta/p85-alpha, sequence (P27986 whole entry, one chain of several): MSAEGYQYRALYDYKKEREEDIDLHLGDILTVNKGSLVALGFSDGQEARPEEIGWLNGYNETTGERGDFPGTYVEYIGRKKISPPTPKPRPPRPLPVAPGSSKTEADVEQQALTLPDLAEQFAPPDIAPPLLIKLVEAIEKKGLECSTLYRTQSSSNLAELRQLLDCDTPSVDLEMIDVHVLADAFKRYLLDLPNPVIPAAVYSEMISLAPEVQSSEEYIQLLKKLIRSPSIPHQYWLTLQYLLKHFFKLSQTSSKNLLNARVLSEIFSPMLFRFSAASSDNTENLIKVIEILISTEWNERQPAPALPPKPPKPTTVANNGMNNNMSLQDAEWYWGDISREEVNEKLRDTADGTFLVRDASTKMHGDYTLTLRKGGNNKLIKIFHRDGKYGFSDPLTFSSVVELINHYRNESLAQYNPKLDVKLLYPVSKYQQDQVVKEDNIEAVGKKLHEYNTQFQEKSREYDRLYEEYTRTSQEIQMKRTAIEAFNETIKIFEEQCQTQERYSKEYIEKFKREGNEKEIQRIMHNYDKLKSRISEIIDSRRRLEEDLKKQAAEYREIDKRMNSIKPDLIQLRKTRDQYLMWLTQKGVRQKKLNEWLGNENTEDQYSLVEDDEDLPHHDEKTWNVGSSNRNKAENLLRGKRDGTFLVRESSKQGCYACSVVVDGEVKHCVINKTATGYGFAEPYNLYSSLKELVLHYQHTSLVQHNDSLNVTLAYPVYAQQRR
Description: Inhibition of recombinant human N-terminal His-tagged full length p110delta/recombinant human full length p85alpha using PIP2 as substrate preincubated for 30 mins followed by substrate addition by HTRF assay

[38] = biological target: PI3-kinase p110-alpha/p85-alpha (Homo sapiens, UniProt P42336)
Description: Inhibition of recombinant human N-terminal His6-tagged full length p110alpha/recombinant human full length p85alpha using PIP2 as substrate preincubated for 30 mins followed by substrate addition by HTRF assay

PI3K p110 beta/p85 alpha = PI3K p110 beta/p85 alpha (Homo sapiens, UniProt P42338)
PI3K p110 beta/p85 alpha, sequence (P27986 whole entry): as the sequence (P27986 whole entry, one chain of several) above
PI3K p110 beta/p85 alpha, sequence (P42338 whole entry): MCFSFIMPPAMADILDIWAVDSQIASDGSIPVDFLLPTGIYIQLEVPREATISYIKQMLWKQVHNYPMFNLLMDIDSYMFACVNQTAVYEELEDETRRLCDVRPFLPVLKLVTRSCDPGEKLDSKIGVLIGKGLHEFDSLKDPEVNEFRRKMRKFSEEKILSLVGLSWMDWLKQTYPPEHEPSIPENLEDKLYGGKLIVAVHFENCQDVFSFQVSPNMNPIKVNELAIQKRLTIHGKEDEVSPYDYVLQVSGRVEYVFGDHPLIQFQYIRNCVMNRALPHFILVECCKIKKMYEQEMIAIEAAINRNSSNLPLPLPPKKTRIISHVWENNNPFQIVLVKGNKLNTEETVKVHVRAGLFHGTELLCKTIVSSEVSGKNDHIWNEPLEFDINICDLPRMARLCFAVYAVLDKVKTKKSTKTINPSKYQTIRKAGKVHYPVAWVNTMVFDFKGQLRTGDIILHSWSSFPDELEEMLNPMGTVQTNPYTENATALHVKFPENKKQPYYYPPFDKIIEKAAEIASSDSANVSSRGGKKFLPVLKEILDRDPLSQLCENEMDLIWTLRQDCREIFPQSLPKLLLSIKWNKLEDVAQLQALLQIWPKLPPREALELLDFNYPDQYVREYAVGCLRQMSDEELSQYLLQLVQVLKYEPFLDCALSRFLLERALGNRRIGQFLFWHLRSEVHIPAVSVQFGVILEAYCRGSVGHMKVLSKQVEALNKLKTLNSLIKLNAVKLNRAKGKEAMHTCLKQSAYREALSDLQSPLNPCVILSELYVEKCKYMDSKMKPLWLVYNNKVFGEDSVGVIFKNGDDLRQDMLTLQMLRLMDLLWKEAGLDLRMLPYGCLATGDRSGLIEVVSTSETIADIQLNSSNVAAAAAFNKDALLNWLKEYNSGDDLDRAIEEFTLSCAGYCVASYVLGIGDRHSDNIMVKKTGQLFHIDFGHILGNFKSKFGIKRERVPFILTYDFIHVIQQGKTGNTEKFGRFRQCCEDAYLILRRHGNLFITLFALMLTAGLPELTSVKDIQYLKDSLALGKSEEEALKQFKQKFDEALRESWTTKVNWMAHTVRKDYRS
Description: Inhibition of recombinant human N-terminal His6-tagged full length p110beta/recombinant human full length p85alpha using PIP2 as substrate preincubated for 30 mins followed by substrate addition and HTRF assay

Structure (SMILES): Cc1ccccc1-n1c(CN2CNc3c(N)ncnc32)nc2cccc(C)c2c1=O
- IC50 [1]: 130 nM

- IC50 [2]: 36 nM
- metabolised at 0.5 h, 5 µM [3]: 32%
- metabolised at 2 h, 5 µM [4]: 10%
- metabolised at 0.5 h, 5 µM [5]: 68%
- metabolised at 2 h, 5 µM [6]: 30%
- IC50 [7]: 2.7 nM
- Papp at 20 µM [8]: 0.2 ×10⁻⁶ cm/s
- solubility thermodynamic [9]: 3 µg/mL (≈ 5.05 µM)
- AUC [10]: 171 ng·h/mL
- Cmax [11]: 455 ng/mL
- clearance [12]: 96 mL/min/kg
- Vd [13]: 5.2 L/kg
- half-life [14]: 1.7 h
- bioavailability [15]: 1%
- fraction unbound at 1 µM [16]: 0.011
- AUC [17]: 15.5 µg·h/g
- AUC [18]: 459.6 µg·h/g
- AUC [19]: 5.3 ng·h/mL
- AUC [20]: 96.5 ng·h/mL
- Ratio [21]: 2925
- Ratio [22]: 4763
- Cmax [23]: 3400 ng/g
- Cmax [24]: 73300 ng/g
- Cmax [25]: 1.4 ng/mL
- Cmax [26]: 16400 ng/mL
- half-life [27]: 2.8 h
- half-life [28]: 4.5 h
- half-life [29]: 3.2 h
- half-life [30]: 3.2 h
- fCmax (Rattus norvegicus [36]): 0.3 nM
- IC50 [37]: 0.5 nM
- IC50 [38]: 1900 nM
- IC50 (PI3K p110 beta/p85 alpha): 10 nM
Structure (SMILES): Cc1ccn2nc([C@H](C)Nc3ncnc4[nH]cc(-c5cc(NS(C)(=O)=O)cc6[nH]ccc56)c34)n(-c3ccccc3)c(=O)c12
- inhibition in vivo at 0.3 mg/kg (Rattus norvegicus [31]): 55%
- inhibition in vivo at 0.3 mg/kg (Rattus norvegicus [32]): 77%
- inhibition in vivo at 0.1 mg/kg (Rattus norvegicus [33]): 21%
- inhibition in vivo at 0.1 mg/kg (Rattus norvegicus [34]): 42%
- inhibition (INH) [35]: Not Active
